Source: US10772929B2, “Use of peptide compounds in treating acute pancreatitis” (SHENZHEN HIGHTIDE BIOPHARMACEUTICAL, LTD., priority 2017, dated 2020)

Tests used:
[1] = test system: sodium taurocholate-induced severe acute pancreatitis (SAP) rat model; test: Sodium taurocholate-induced severe acute pancreatitis (SAP) rat model; type: in vivo; conditions: SAP rats; for Survival Rate: 3-day experiment; for Survival rate of model animals versus model control (in words): all three doses (0.05, 0.25, 1.25 mg/kg); for Pathological score: Area of necrosis / Pathological score: Edema / Pathological score: Hemorrhage / Pathological score: Inflammation: Schmidt's scoring standard 0-4; for Pathological score: Total damage: sum of the four items
From the text: After at least 7 days of accumulation period, 60 female and 70 male Sprague-Dawley (SD) rats were included in the study. Five females and eight males were randomly selected as the control group. Another five females and eight males were randomly selected as the sham group, the abdominal cavity was opened for each of the rats in the sham group, and a cotton swab was used to gently flip the duodenum and pancreas, then the abdominal muscle and skin were sutured after the completion of the operation The remaining animals were assigned to establish the severe acute pancreatitis (SAP) rat model using the method of retrograde injection of sodium taurocholate solution with 35 mg/kg dosage into the biliopancreatic duct. The model animals were randomly divided into 4 groups of 24 rats each (male:female=1:1) on the day after model establishment, which were the model control group (vehicle), and low dose group of peptide 12 (0.05 mg/kg), middle dose group of peptide 12 (0.25 mg/kg) and high dose group of peptide 12 (1.25 mg/kg), peptide 12 was dissolved in saline.
The animals were subcutaneously injected once on the day after the establishment of the model, once on the second day, for a total of 2 consecutive days, and the experimental period was 3 days. During the experiment, the animals were observed by cage, including if there is any animal death or near death, mental state, behavioral activities, fecal characteristics, skin, hair, eyes, ears, nose, abdomen, external genitals, anus, limbs, feet, respiration, etc. At the end of the experiment, all the surviving rats were weighed and blood samples were collected to detect the levels of amylase, calcium and lipase in serum of rats in each group. The general anatomical observation was made, focusing on the status of pancreas, gastrointestinal tract, ascites, bile duct obstruction, pulmonary congestion and saponification spots. The pancreas was preserved in 10% formalin fixative for further pathological analysis.
The severity of pancreatic injury was assessed by preparing HE slices of pancreas and using Schmidt's scoring standard to evaluate the pathological changes of pancreatic edema, inflammation, hemorrhage and necrosis. The total pancreatic injury calculated as the sum of the above four items.

[2] = test system: caerulein-induced acute pancreatitis (AP) model; test: Caerulein-induced acute pancreatitis (AP) mouse model; type: in vivo, BALB/c mice; conditions: caerulein AP mice; for Pathological score: Area of necrosis / Pathological score: Edema / Pathological score: Hemorrhage / Pathological score: Inflammation: Schmidt's scoring standard; for Edema of the pancreas versus model group (in words): FIG. 12; for Inflammation of the pancreas versus model group (in words): FIG. 13; for Level of amylase versus model control / Level of lipase versus model control: doses of 0.025, 0.25, 2.5 and 25 mg/kg; for Level of amylase versus model control: FIG. 10, P<0.001; for Level of lipase versus model control: FIG. 11, P<0.001
Method: Male BALB/c mice, aged 6-8 weeks, were accumulated for more than 7 days. After fasting overnight, 10 animals were randomly selected as normal control. The remaining animals were injected with caerulein 50 μg/kg intraperitoneally every 1 hour for 10 times to induce acute pancreatitis, and they were randomly divided into model control group and peptide 12 treatment groups with the dosage of 0.025, 0.25, 2.5 and 25 mg/kg respectively, there were 10 mice in each group. Mice were given corresponding doses of peptide 12 or normal saline 5 minutes before the fourth injection of caerulein.
The experiment was finished one hour after the 10th injection of caerulein, blood samples were collected for the determination of amylase and lipase levels. Pancreas were weighed and fixed in 10% formalin solution for subsequent pathological analysis.
The pancreatic index was calculated as pancreatic weight/body weight, which reflected the severity of pancreatic edema. The statistical results were shown in FIG. 9, in which ### means P<0.001 compared with the normal control group; ** means P<0.01 compared with the model control group, *** means P<0.001 compared with the model control group. […] It should be noted that in FIG. 10, ### means P<0.001 compared with the normal control group; *** means P<0.001 compared with the model control group; in FIG. 11, ### means P<0.001 compared with the normal control group; *** means P<0.001 compared with the model control group.
The severity of pancreatic injury was assessed by preparing HE slices of pancreas and using Schmidt's scoring standard to evaluate the pathological changes of pancreatic edema, inflammation, hemorrhage and necrosis.

[3] = listed as Ac-IGLHD PSHGT LPAGS-OH

Substance: Ac-IGLHDPSHGTLPAGS-OH [Peptide 12]
- Ratio (treatment group/model group) of survival ([1]; 0.05 mg/kg): 1.11
- Survival Rate ([1]; 0.05 mg/kg subcutaneous once daily for 2 days): 41.7%
- Ratio (treatment group/model group) of survival ([1]; 0.25 mg/kg): 1.33
- Survival Rate ([1]; 0.25 mg/kg subcutaneous once daily for 2 days): 50.0%
- Ratio (treatment group/model group) of survival ([1]; 1.25 mg/kg): 1.78
- Survival Rate ([1]; 1.25 mg/kg subcutaneous once daily for 2 days, 1.25 mg/kg): 66.7%
- Pathological changes of pancreas caused by sodium taurocholate ([1]; FIG. 4 to FIG. 8, dose-dependent): reduce
- Survival rate of model animals versus model control (in words) [1, 3]: significantly increase
- Survival rate of model animals versus model control (in words) ([1]; listed as peptide 12): improved
- Pathological score: Area of necrosis ([1]; high dose (1.25 mg/kg)): 1.13 ± 0.85
- Pathological score: Edema ([1]; high dose (1.25 mg/kg)): 1.21 ± 0.96
- Pathological score: Hemorrhage ([1]; high dose (1.25 mg/kg)): 1.15 ± 0.83
- Pathological score: Inflammation ([1]; high dose (1.25 mg/kg)): 2.67 ± 1.00
- Pathological score: Total damage ([1]; high dose (1.25 mg/kg)): 6.15 ± 2.69
- Pathological score: Area of necrosis ([1]; low dose (0.05 mg/kg)): 1.63 ± 0.74
- Pathological score: Edema ([1]; low dose (0.05 mg/kg)): 1.33 ± 0.86
- Pathological score: Hemorrhage ([1]; low dose (0.05 mg/kg)): 1.73 ± 0.89
- Pathological score: Inflammation ([1]; low dose (0.05 mg/kg)): 2.90 ± 1.22
- Pathological score: Total damage ([1]; low dose (0.05 mg/kg)): 7.60 ± 3.07
- Pathological score: Area of necrosis ([1]; middle dose (0.25 mg/kg)): 1.11 ± 0.78
- Pathological score: Edema ([1]; middle dose (0.25 mg/kg)): 1.44 ± 0.87
- Pathological score: Hemorrhage ([1]; middle dose (0.25 mg/kg)): 1.31 ± 0.87
- Pathological score: Inflammation ([1]; middle dose (0.25 mg/kg)): 2.83 ± 0.93
- Pathological score: Total damage ([1]; middle dose (0.25 mg/kg)): 6.69 ± 2.53
- Mental state and activity state of the surviving animals versus model control ([1]; treatment groups 0.05, 0.25, 1.25 mg/kg): significantly better
- General anatomy of surviving animals (pancreas edema and liquefaction, gastrointestinal obstruction, ascites volume, bile duct obstruction, pulmonary congestion, saponification spots) ([1]; treatment groups versus control group): improved with varying degrees
- Level of amylase in blood versus model control ([1]; treatment groups, FIG. 2): decreased
- Level of lipase in blood versus model control ([1]; treatment groups, FIG. 3): decreased
- Pathological score: Area of necrosis ([2]; 0.025 mg/kg): 0.00 ± 0.00
- Pathological score: Edema ([2]; 0.025 mg/kg): 1.50 ± 0.84
- Pathological score: Hemorrhage ([2]; 0.025 mg/kg): 0.00 ± 0.00
- Pathological score: Inflammation ([2]; 0.025 mg/kg): 1.33 ± 0.52
- Pathological score: Area of necrosis ([2]; 0.25 mg/kg): 0.00 ± 0.00
- Pathological score: Edema ([2]; 0.25 mg/kg): 1.67 ± 0.82
- Pathological score: Hemorrhage ([2]; 0.25 mg/kg): 0.00 ± 0.00
- Pathological score: Inflammation ([2]; 0.25 mg/kg): 1.17 ± 0.75
- Pathological score: Area of necrosis ([2]; 2.5 mg/kg): 0.00 ± 0.00
- Pathological score: Edema ([2]; 2.5 mg/kg): 1.17 ± 1.17
- Pathological score: Hemorrhage ([2]; 2.5 mg/kg): 0.00 ± 0.00
- Pathological score: Inflammation ([2]; 2.5 mg/kg): 0.83 ± 0.75
- Pathological score: Area of necrosis ([2]; 25 mg/kg): 0.00 ± 0.00
- Pathological score: Edema ([2]; 25 mg/kg): 1.50 ± 0.55
- Pathological score: Hemorrhage ([2]; 25 mg/kg): 0.33 ± 0.82
- Pathological score: Inflammation ([2]; 25 mg/kg): 2.17 ± 0.75
- Edema of the pancreas versus model group (in words) [2, 3]: significantly reduced
- Edema of the pancreas versus model group (in words) ([2]; listed as peptide 12): alleviated
- Inflammation of the pancreas versus model group (in words) [2, 3]: significantly reduced
- Inflammation of the pancreas versus model group (in words) ([2]; listed as peptide 12): alleviated
- Level of amylase versus model control [2]: significantly lowered
- Level of amylase versus model control [2, 3]: significantly reduced
- Level of lipase versus model control [2]: significantly lowered
- Level of lipase versus model control [2, 3]: significantly reduced
- Pancreatic index (pancreatic weight/body weight) versus model control ([2]; doses of 0.025, 0.25 and 2.5 mg/kg, dose dependent, FIG. 9): significantly decreased
